Measured values as given in US20240208915A1, “A SOLID STATE FORM OF TAFAMIDIS AND A PROCESS FOR ITS PREPARATION” (Quimica Sintetica, S.A., priority 2021, published 2024).
Like-named read-outs stand apart in the source and are kept apart here.

Legend:
[1] = XRPD pattern after keeping at storage condition in a close vial; type: physicochemical; details: storage condition (room temperature, RH not more than 80%)
Experimental: (§1) The instruments and methods used to characterize the crystals obtained in the examples are as follows: • X-ray powder diffraction analyses (XRPD) were performed on a Bruker D8 Advance X-ray powder diffractometer at about 25° C. and ambient humidity (e.g. 25-35%), using a Cu Kα tube (40 kV, 40 mA, λ=1.5418 Å) as the X-ray source, equipped with a linear Lynxeye XE-T position sensitive detector set at 250 mm from the sample. A Nickel filter (0.0125 mm thickness) was mounted on the primary beam. Data collection was made in coupled mode, theta-theta configuration over an angular range between at least 3° 2 theta and 40° 2theta and a scan step of 0.02°. Fine powder samples were placed in a flat, thin layer in the 12 mm×0.2 mm cavity of a silicon low background plate fixed on a sample holder fitting an autosampler position. The instrument was previously calibrated by means of NIST SRM 1976b. Data acquisition was performed by means of Bruker Diffraction Measurement Center software; data elaboration was performed by means of Crystal Impact Match! or Bruker Diffrac. EVA software.

[2] = cited from earlier work
[3] = Chemical and physical stability over storage (summary statements)
Excerpt: “Storage condition” referred to 2-(3,5-dichlorophenyl)-1,3-benzoxazole-6-carboxylic acid and its salt means that all the forms are stored in a close vessel at room temperature, ambient pressure and at relative humidity (RH) degree not more than 80%.

[4] = Stability studies: XRPD to evaluate any change in crystalline form; type: physicochemical
Experimental: as §1
(§2) Vials containing 100 mg each of alpha form of present invention are stored at the following conditions, wherein RH is referred to relative humidity: • room Temperature (RT) and 80% RH, open vial • 40° C. and 75% RH, open vial
(§3) The sample were analysed before the storage (initial data), 8 days, 15 days and 4 weeks using X-ray powder diffractogram (XRPD) to evaluate any change in crystalline form and using HPLC to measure the chemical purity.
(§4) 700 mg of tafamidis form 4 of obtained according to present invention are stored at the following conditions, wherein RH is referred to relative humidity: • 40° C. and 75% RH, type A container.
(§5) The samples were analysed before the storage (initial data), after 1 month, 3 months, 6 months using X-ray powder diffractogram (XRPD) to evaluate any change in crystalline form and using HPLC to measure the chemical purity.

[5] = Stability studies: HPLC to measure the chemical purity; type: physicochemical
Experimental: as §2, §3, §4, §5

O=C(O)c1ccc2nc(-c3cc(Cl)cc(Cl)c3)oc2c1 [form 1, 2-(3,5-dichlorophenyl)-1,3-benzoxazole-6-carboxylic acid]
change of XRPD pattern ([1]; 8 months): does not change its XRPD pattern | thermodynamic stability of the form ([2]; room temperature): thermodynamically stable form | chemical and physical stability (XRPD pattern, degradation) ([3]; kept at storage condition): chemically and physically stable

O=C(O)c1ccc2nc(-c3cc(Cl)cc(Cl)c3)oc2c1 [amorphous, 2-(3,5-dichlorophenyl)-1,3-benzoxazole-6-carboxylic acid]
solid form conversion upon storage ([2]; 1 week at 70° C. and 75% relative humidity): converts into crystalline form 4

O=C(O)c1ccc2nc(-c3cc(Cl)cc(Cl)c3)oc2c1 [form 4, 2-(3,5-dichlorophenyl)-1,3-benzoxazole-6-carboxylic acid]
change of XRPD pattern ([1]; 10 months): does not change its XRPD pattern | transformation into a different crystalline form (XRPD) ([4]; 40° C., 75% RH, type A container, after 6 months): no signs of transformation into a different crystalline form | thermodynamic stability of the form ([2]; high temperature): more stable | chemical and physical stability ([3]; stored for several months at 40° C. and 75% RH): chemically and physically stable

O=C(O)c1ccc2nc(-c3cc(Cl)cc(Cl)c3)oc2c1 [form I, 2-(3,5-dichlorophenyl)-1,3-benzoxazole-6-carboxylic acid]
solid form conversion upon drying ([2]; vacuum dryer at 100-160° C. (WO 2020/232325, examples 16 to 20)): convert into form 4

O=C(O)c1ccc2nc(-c3cc(Cl)cc(Cl)c3)oc2c1 [form alpha, 2-(3,5-dichlorophenyl)-1,3-benzoxazole-6-carboxylic acid]
chemical purity by HPLC versus initial profile ([5]; 40° C., 75% RH, open vial, up to 4 weeks): does not present a significant worsening of the purity | chemical purity by HPLC versus initial profile ([5]; 40° C., 75% RH, type A container, up to 6 months): does not present a significant worsening of the purity | chemical purity by HPLC versus initial profile ([5]; room temperature, 80% RH, open vial, up to 4 weeks): does not present a significant worsening of the purity | transformation into a different crystalline form (XRPD) ([4]; 40° C., 75% RH, open vial, after 4 weeks): no signs of transformation | transformation into a different crystalline form (XRPD) ([4]; room temperature, 80% RH, open vial, after 4 weeks): no signs of transformation | chemical and physical stability (polymorphic form, chemical purity) ([3]; storage between 15 to 60° C. for several weeks at different degree of humidity): chemically and physically stable
